Key:
Test in all cases: KINOMEscan competition binding
Settings in all cases: compound 10.0 µM
FLT4 (human) = FLT4 (human) (UniProt P35916)
TSSK1B (human) = TSSK1B (human) (UniProt Q9BXA7)
CAMK2B (human) = CAMK2B (human) (UniProt Q13554)
NEK1 (human) = NEK1 (human) (UniProt Q96PY6)
PRKACB (human) = PRKACB (human) (UniProt P22694)
CDKL2 (human) = CDKL2 (human) (UniProt Q92772)
TNNI3K (human) = TNNI3K (human) (UniProt Q59H18)
CDK5 (human) = CDK5 (human) (UniProt Q00535)
CLK3 (human) = CLK3 (human) (UniProt P49761)
Sequence of CLK3 (human) (P49761 whole entry, looked up): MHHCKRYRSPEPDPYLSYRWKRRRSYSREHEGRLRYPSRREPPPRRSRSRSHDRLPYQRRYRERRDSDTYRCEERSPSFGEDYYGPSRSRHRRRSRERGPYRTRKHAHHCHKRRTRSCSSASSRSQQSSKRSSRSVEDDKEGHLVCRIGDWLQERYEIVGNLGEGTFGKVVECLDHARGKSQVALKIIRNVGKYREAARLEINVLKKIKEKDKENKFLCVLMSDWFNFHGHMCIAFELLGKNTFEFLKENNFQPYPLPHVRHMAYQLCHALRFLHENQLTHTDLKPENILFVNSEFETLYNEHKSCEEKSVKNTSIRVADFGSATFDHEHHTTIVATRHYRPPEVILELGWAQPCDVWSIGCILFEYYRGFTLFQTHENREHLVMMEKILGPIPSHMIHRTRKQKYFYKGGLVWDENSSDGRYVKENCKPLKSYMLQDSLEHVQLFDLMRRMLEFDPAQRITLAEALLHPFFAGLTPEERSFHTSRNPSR

ADCK3 (human) = ADCK3 (human) (UniProt Q8NI60)
CAMK4 (human) = CAMK4 (human) (UniProt Q16566)
CIT (human) = CIT (human) (UniProt O14578)
NEK2 (human) = NEK2 (human) (UniProt P51955)
CLK2 (human) = CLK2 (human) (UniProt P49760)
GAK (human) = GAK (human) (UniProt O14976)
RPS6KA6 KD2 (human) = RPS6KA6 KD2 (human) (UniProt Q9UK32)
RIPK2 (human) = RIPK2 (human) (UniProt O43353)
NEK6 (human) = NEK6 (human) (UniProt Q9HC98)
Sequence of NEK6 (human) (Q9HC98 whole entry, looked up): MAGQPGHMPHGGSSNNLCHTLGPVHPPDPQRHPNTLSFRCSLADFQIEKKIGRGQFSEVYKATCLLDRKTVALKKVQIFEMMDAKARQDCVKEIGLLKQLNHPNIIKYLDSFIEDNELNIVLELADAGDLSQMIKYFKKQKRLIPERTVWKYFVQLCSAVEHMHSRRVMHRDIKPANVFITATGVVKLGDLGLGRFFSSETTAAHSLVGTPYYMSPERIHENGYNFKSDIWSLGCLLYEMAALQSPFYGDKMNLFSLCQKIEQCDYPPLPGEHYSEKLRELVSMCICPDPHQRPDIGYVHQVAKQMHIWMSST

MAPKAPK2 (human) = MAPKAPK2 (human) (UniProt P49137)
TNIK (human) = TNIK (human) (UniProt Q9UKE5)
RIPK4 (human) = RIPK4 (human) (UniProt P57078)
Sequence of RIPK4 (human) (P57078 whole entry, looked up): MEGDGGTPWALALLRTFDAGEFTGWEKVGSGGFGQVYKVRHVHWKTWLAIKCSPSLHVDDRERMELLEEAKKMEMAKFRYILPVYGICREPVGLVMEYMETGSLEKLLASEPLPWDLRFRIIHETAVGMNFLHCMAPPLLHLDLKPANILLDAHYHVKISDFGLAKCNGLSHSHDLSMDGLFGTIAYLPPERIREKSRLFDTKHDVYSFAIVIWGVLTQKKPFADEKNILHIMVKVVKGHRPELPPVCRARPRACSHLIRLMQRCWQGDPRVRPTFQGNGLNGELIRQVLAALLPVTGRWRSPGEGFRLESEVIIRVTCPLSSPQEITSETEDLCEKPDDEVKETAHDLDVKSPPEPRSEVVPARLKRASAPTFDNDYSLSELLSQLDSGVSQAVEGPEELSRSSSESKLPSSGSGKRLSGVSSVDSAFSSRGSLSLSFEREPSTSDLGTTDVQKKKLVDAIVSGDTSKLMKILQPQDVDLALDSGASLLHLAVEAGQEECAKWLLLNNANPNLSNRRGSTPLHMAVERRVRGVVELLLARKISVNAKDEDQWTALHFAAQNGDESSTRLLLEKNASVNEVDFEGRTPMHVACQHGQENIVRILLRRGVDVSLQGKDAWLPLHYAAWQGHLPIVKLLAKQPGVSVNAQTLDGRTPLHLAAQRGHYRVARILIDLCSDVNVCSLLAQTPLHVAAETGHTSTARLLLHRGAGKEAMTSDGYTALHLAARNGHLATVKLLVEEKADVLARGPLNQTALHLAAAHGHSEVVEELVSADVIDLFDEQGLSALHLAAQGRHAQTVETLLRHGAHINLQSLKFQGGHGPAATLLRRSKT

LATS2 (human) = LATS2 (human) (UniProt Q9NRM7)
Sequence of LATS2 (human) (Q9NRM7 whole entry, looked up): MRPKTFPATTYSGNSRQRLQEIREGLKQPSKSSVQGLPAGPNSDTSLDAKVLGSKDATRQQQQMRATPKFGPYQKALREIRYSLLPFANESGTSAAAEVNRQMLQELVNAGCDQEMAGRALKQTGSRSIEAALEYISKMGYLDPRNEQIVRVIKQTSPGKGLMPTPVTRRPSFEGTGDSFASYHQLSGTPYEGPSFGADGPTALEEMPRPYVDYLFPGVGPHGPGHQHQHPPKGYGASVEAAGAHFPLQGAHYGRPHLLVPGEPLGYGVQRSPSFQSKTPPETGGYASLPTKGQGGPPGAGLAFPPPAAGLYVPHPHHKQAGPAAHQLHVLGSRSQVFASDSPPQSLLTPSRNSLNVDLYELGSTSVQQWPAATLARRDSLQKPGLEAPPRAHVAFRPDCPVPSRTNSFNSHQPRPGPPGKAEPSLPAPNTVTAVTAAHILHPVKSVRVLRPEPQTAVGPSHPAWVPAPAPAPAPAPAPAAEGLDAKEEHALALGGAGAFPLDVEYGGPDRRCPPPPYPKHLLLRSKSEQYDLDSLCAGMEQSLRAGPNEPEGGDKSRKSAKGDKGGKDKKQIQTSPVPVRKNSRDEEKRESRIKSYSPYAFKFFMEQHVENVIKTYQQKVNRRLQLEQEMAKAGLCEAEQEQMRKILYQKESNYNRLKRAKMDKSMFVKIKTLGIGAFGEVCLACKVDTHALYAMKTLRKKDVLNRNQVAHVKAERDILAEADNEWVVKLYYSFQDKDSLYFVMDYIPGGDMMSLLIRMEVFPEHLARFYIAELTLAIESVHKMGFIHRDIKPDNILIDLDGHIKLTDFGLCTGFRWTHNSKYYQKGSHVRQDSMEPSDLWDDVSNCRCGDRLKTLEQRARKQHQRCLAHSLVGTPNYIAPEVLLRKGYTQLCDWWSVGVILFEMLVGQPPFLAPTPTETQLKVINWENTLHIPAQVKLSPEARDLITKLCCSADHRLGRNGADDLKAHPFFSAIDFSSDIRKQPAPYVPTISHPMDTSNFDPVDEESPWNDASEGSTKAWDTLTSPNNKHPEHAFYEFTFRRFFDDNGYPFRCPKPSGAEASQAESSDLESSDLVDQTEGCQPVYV

ULK3 (human) = ULK3 (human) (UniProt Q6PHR2)
STK25 (human) = STK25 (human) (UniProt O00506)
Sequence of STK25 (human) (O00506 whole entry, looked up): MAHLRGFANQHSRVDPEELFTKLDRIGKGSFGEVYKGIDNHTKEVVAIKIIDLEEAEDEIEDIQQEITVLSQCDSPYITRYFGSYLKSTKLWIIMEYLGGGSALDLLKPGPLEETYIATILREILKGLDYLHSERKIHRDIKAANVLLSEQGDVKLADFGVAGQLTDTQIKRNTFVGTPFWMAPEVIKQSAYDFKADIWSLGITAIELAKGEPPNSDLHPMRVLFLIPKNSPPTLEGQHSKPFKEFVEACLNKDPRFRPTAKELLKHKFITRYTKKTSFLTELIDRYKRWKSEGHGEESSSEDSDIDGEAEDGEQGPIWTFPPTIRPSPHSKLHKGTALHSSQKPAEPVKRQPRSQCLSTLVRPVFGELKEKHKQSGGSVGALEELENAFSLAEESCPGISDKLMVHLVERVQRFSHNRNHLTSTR

CDC2L2 (human) = CDC2L2 (human) (UniProt Q9UQ88)
CSNK1E (human) = CSNK1E (human) (UniProt P49674)
CDK3 (human) = CDK3 (human) (UniProt Q00526)
EPHB1 (human) = EPHB1 (human) (UniProt P54762)
FGFR4 (human) = FGFR4 (human) (UniProt P22455)
FES (human) = FES (human) (UniProt P07332)
BMPR1A (human) = BMPR1A (human) (UniProt P36894)
CDC42BPG (human) = CDC42BPG (human) (UniProt Q6DT37)
CHEK1 (human) = CHEK1 (human) (UniProt O14757)
ULK2 (human) = ULK2 (human) (UniProt Q8IYT8)
Sequence of ULK2 (human) (Q8IYT8 whole entry, looked up): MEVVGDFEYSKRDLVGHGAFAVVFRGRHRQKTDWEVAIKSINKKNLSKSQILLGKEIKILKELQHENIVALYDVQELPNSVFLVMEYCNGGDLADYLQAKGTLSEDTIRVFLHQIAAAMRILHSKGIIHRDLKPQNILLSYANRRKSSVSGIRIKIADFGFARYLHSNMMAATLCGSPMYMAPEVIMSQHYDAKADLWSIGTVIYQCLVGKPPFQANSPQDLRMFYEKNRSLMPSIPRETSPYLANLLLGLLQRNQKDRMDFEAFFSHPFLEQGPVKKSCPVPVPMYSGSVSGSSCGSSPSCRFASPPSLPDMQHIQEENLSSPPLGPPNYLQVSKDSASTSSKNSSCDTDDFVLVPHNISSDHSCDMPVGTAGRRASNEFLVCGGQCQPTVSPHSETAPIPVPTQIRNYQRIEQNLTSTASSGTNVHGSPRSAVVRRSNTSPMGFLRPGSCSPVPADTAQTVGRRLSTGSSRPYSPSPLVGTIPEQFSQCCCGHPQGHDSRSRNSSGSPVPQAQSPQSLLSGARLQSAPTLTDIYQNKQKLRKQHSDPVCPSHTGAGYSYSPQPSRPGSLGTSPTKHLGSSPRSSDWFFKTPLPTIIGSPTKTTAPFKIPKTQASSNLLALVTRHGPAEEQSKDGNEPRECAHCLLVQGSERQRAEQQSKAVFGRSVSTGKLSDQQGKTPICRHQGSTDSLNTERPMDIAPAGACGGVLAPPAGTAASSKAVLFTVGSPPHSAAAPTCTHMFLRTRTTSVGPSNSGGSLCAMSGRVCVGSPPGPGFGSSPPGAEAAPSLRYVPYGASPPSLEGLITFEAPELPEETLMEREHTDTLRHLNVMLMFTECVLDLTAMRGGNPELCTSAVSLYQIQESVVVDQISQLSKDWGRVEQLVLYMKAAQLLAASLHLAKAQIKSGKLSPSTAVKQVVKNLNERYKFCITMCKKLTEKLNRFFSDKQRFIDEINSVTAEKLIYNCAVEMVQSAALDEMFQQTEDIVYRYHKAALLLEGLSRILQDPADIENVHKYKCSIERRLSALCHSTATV

MAP4K2 (human) = MAP4K2 (human) (UniProt Q12851)
TAOK1 (human) = TAOK1 (human) (UniProt Q7L7X3)
STK10 (human) = STK10 (human) (UniProt O94804)
PIM1 (human) = PIM1 (human) (UniProt P11309)
SIK1 (human) = SIK1 (human) (UniProt P57059)
RPS6KA3 KD1 (human) = RPS6KA3 KD1 (human) (UniProt P51812)

Sequence of TNNI3K (human) (Q59H18 whole entry, looked up): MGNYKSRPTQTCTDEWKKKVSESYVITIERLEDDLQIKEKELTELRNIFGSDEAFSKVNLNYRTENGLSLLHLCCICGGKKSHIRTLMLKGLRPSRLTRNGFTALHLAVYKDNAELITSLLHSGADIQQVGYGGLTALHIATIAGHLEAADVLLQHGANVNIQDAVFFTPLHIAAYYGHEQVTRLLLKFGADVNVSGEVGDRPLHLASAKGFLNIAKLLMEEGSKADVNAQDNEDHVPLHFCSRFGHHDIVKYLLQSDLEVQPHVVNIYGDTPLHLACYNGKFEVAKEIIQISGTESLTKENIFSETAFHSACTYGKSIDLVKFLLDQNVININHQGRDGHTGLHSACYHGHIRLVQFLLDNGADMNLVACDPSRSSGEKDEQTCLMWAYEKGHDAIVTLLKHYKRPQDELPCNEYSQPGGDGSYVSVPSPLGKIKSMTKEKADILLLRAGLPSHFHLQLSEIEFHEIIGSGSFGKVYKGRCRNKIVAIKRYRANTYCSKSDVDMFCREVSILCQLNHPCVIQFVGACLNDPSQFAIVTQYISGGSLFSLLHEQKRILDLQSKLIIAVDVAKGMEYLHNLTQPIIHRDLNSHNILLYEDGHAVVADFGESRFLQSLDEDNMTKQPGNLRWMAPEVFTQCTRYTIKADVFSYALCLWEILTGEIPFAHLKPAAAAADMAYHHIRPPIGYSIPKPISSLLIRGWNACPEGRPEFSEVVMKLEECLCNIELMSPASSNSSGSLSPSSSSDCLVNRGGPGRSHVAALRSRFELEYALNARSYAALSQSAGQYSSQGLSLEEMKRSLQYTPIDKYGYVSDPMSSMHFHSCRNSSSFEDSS

| Compound | kinase still bound, per cent of control (FLT4 (human)) | kinase still bound, per cent of control (TSSK1B (human)) | kinase still bound, per cent of control (NEK1 (human)) | kinase still bound, per cent of control (PRKACB (human)) | kinase still bound, per cent of control (CDKL2 (human)) | kinase still bound, per cent of control (TNNI3K (human)) | kinase still bound, per cent of control (CDK5 (human)) | kinase still bound, per cent of control (CLK3 (human)) | kinase still bound, per cent of control (ADCK3 (human)) | kinase still bound, per cent of control (CAMK4 (human)) | kinase still bound, per cent of control (CIT (human)) | kinase still bound, per cent of control (NEK2 (human)) | kinase still bound, per cent of control (CLK2 (human)) | kinase still bound, per cent of control (GAK (human)) | kinase still bound, per cent of control (RPS6KA6 KD2 (human)) | kinase still bound, per cent of control (RIPK2 (human)) | kinase still bound, per cent of control (NEK6 (human)) | kinase still bound, per cent of control (MAPKAPK2 (human)) | kinase still bound, per cent of control (TNIK (human)) | kinase still bound, per cent of control (RIPK4 (human)) | further results |
| --- | --- | --- | --- | --- | --- | --- | --- | --- | --- | --- | --- | --- | --- | --- | --- | --- | --- | --- | --- | --- | --- |
| Cn1c(=O)n(-c2ccc(C(C)(C)C#N)cc2)c2c3cc(-c4cnc5ccccc5c4)ccc3ncc21 | 100% | 100% | 100% | 100% | 28% | 100% | 100% | 100% | 100% | 100% | 100% | 100% | 100% | 100% | 100% | 100% | 100% | 100% | 100% | 100% | kinase still bound, per cent of control (CAMK2B (human)): 100%; kinase still bound, per cent of control (LATS2 (human)): 100%; kinase still bound, per cent of control (ULK3 (human)): 100%; kinase still bound, per cent of control (STK25 (human)): 100%; kinase still bound, per cent of control (CDC2L2 (human)): 100%; kinase still bound, per cent of control (CSNK1E (human)): 100%; kinase still bound, per cent of control (CDK3 (human)): 100%; kinase still bound, per cent of control (EPHB1 (human)): 100%; kinase still bound, per cent of control (FGFR4 (human)): 100%; kinase still bound, per cent of control (FES (human)): 100%; kinase still bound, per cent of control (BMPR1A (human)): 100%; kinase still bound, per cent of control (CDC42BPG (human)): 100%; kinase still bound, per cent of control (CHEK1 (human)): 100%; kinase still bound, per cent of control (ULK2 (human)): 100%; kinase still bound, per cent of control (MAP4K2 (human)): 11%; kinase still bound, per cent of control (TAOK1 (human)): 100%; kinase still bound, per cent of control (STK10 (human)): 100%; kinase still bound, per cent of control (PIM1 (human)): 100%; kinase still bound, per cent of control (SIK1 (human)): 100% |
| CC[C@@H]1C(=O)N(C)c2cnc(Nc3ccc(C(=O)NC4CCN(C)CC4)cc3OC)nc2N1C1CCCC1 | 100% | 100% | 100% | 100% | 100% | 100% | 100% | 29% | 100% | 100% | 100% | 17% | 5.4% | 1.6% | 8.3% | 100% | 100% | 100% | 100% | 100% | kinase still bound, per cent of control (LATS2 (human)): 100%; kinase still bound, per cent of control (ULK3 (human)): 100%; kinase still bound, per cent of control (STK25 (human)): 100%; kinase still bound, per cent of control (CDC2L2 (human)): 100%; kinase still bound, per cent of control (CSNK1E (human)): 100%; kinase still bound, per cent of control (CDK3 (human)): 100%; kinase still bound, per cent of control (EPHB1 (human)): 100%; kinase still bound, per cent of control (FGFR4 (human)): 100%; kinase still bound, per cent of control (BMPR1A (human)): 100%; kinase still bound, per cent of control (CDC42BPG (human)): 100%; kinase still bound, per cent of control (CHEK1 (human)): 100%; kinase still bound, per cent of control (ULK2 (human)): 100%; kinase still bound, per cent of control (MAP4K2 (human)): 100%; kinase still bound, per cent of control (TAOK1 (human)): 100%; kinase still bound, per cent of control (STK10 (human)): 100%; kinase still bound, per cent of control (PIM1 (human)): 100%; kinase still bound, per cent of control (SIK1 (human)): 100% |
| CCOc1cc2ncc(C#N)c(Nc3ccc(OCc4ccccn4)c(Cl)c3)c2cc1NC(=O)/C=C/CN(C)C | 100% | 100% | 70% | 100% | 100% | 100% | 100% | 86% | 95% | 100% | 95% | 12% | 100% | 10% | 97% | 98% | 88% | 89% | 6% | 77% | kinase still bound, per cent of control (CAMK2B (human)): 100%; kinase still bound, per cent of control (RPS6KA3 KD1 (human)): 89%; kinase still bound, per cent of control (LATS2 (human)): 100%; kinase still bound, per cent of control (ULK3 (human)): 100%; kinase still bound, per cent of control (STK25 (human)): 13%; kinase still bound, per cent of control (CDC2L2 (human)): 100%; kinase still bound, per cent of control (CSNK1E (human)): 26%; kinase still bound, per cent of control (CDK3 (human)): 100%; kinase still bound, per cent of control (EPHB1 (human)): 98%; kinase still bound, per cent of control (FGFR4 (human)): 100%; kinase still bound, per cent of control (BMPR1A (human)): 89%; kinase still bound, per cent of control (CDC42BPG (human)): 100%; kinase still bound, per cent of control (CHEK1 (human)): 65%; kinase still bound, per cent of control (ULK2 (human)): 100%; kinase still bound, per cent of control (MAP4K2 (human)): 5.2%; kinase still bound, per cent of control (TAOK1 (human)): 83%; kinase still bound, per cent of control (STK10 (human)): 0%; kinase still bound, per cent of control (PIM1 (human)): 100%; kinase still bound, per cent of control (SIK1 (human)): 31% |
| CCCS(=O)(=O)Nc1ccc(F)c(C(=O)c2c[nH]c3ncc(-c4ccc(Cl)cc4)cc23)c1F | 82% | 99% | 100% | 100% | 49% | 65% | 96% | 92% | 100% | 100% | 30% | 71% | 46% | 84% | 75% | 4.3% | 100% | 100% | 15% | 91% | kinase still bound, per cent of control (CAMK2B (human)): 98%; kinase still bound, per cent of control (RPS6KA3 KD1 (human)): 76%; kinase still bound, per cent of control (LATS2 (human)): 75%; kinase still bound, per cent of control (ULK3 (human)): 46%; kinase still bound, per cent of control (STK25 (human)): 100%; kinase still bound, per cent of control (CDC2L2 (human)): 91%; kinase still bound, per cent of control (CDK3 (human)): 94%; kinase still bound, per cent of control (EPHB1 (human)): 100%; kinase still bound, per cent of control (FGFR4 (human)): 100%; kinase still bound, per cent of control (FES (human)): 41%; kinase still bound, per cent of control (BMPR1A (human)): 34%; kinase still bound, per cent of control (CDC42BPG (human)): 34%; kinase still bound, per cent of control (ULK2 (human)): 100%; kinase still bound, per cent of control (MAP4K2 (human)): 59%; kinase still bound, per cent of control (TAOK1 (human)): 72%; kinase still bound, per cent of control (STK10 (human)): 16%; kinase still bound, per cent of control (PIM1 (human)): 95%; kinase still bound, per cent of control (SIK1 (human)): 2.8% |
